The subject of assay [1] is A549. The experiment in a line: Growth inhibition of human A549 cells at 50 uM after 48 hrs by SRB assay. As to conditions: A549, 48 h, read-out: GI. The format is functional.
In assay [2] the test system is Caco-2. The experiment in a line: Growth inhibition of human Caco2 cells after 48 hrs by SRB assay. The format is functional, cell-based. The following applies: for IC50: Caco-2, 48 h. In general terms: The SRB assay estimates cell density from bound dye.
In assay [3] the test system is THP-1. The experiment in a line: Growth inhibition of human THP1 cells at 10 uM after 48 hrs by SRB assay. The format is functional. The following applies: THP-1, 48 h, read-out: GI.
Assay [4] concerns PC-3. Nature of the assay: Growth inhibition of human PC3 cells at 10 uM after 48 hrs by SRB assay. The assay is classed as functional. The following applies: PC-3, 48 h, read-out: GI.
In assay [5] the test system is THP-1. The experiment in a line: Growth inhibition of human THP1 cells at 50 uM after 48 hrs by SRB assay. The assay is classed as functional. As to conditions: THP-1, 48 h, read-out: GI.
In assay [6] the test system is Caco-2. The experiment in a line: Growth inhibition of human Caco2 cells at 10 uM after 48 hrs by SRB assay. The assay is classed as functional. The following applies: Caco-2, 48 h, read-out: GI.
Assay [7] deals with A549. The experiment in a line: Growth inhibition of human A549 cells after 48 hrs by SRB assay. The assay is classed as functional, cell-based. As to conditions: for IC50: A549, 48 h.
For assay [8], the system named is THP-1. The experiment in a line: Ratio of 5-fluorouracil IC50 to compound IC50 for human THP1 cells. The format is functional.
Assay [9] deals with PC-3. The experiment in a line: Growth inhibition of human PC3 cells after 48 hrs by SRB assay. As to conditions: for IC50: PC-3, 48 h. The format is functional, cell-based.
In assay [10] the test system is THP-1. The experiment in a line: Growth inhibition of human THP1 cells at 100 uM after 48 hrs by SRB assay. The following applies: THP-1, 48 h, read-out: GI. The format is functional.
Assay [11] concerns A549. The experiment in a line: Growth inhibition of human A549 cells at 10 uM after 48 hrs by SRB assay. The format is functional. The following applies: A549, 48 h, read-out: GI.
Assay [12] relates to PC-3. Nature of the assay: Growth inhibition of human PC3 cells at 100 uM after 48 hrs by SRB assay. The format is functional. The following applies: PC-3, 48 h, read-out: GI.
In assay [13] the test system is THP-1. The experiment in a line: Growth inhibition of human THP1 cells after 48 hrs by SRB assay. The assay is classed as functional, cell-based. The following applies: for IC50: THP-1, 48 h.
The test system of assay [14] is PC-3. The experiment in a line: Growth inhibition of human PC3 cells at 50 uM after 48 hrs by SRB assay. The format is functional. The following applies: PC-3, 48 h, read-out: GI.
Assay [15] has as its system Caco-2. Nature of the assay: Growth inhibition of human Caco2 cells at 50 uM after 48 hrs by SRB assay. The assay is classed as functional. The following applies: Caco-2, 48 h, read-out: GI.
In assay [16] the test system is A549. The experiment in a line: Growth inhibition of human A549 cells at 100 uM after 48 hrs by SRB assay. The assay is classed as functional. As to conditions: A549, 48 h, read-out: GI.
Assay [17] relates to Caco-2. Nature of the assay: Growth inhibition of human Caco2 cells at 100 uM after 48 hrs by SRB assay. The format is functional. The following applies: Caco-2, 48 h, read-out: GI.
In assay [18] the test system is THP-1. Nature of the assay: Growth inhibition of human THP1 cells at 20 uM after 48 hrs by SRB assay. The format is functional. As to conditions: THP-1, 48 h, read-out: GI.
The subject of assay [19] is Caco-2. Nature of the assay: Growth inhibition of human Caco2 cells at 20 uM after 48 hrs by SRB assay. The assay is classed as functional. As to conditions: Caco-2, 48 h, read-out: GI.
Assay [20] deals with PC-3. Nature of the assay: Growth inhibition of human PC3 cells at 1 uM after 48 hrs by SRB assay. The format is functional. The following applies: PC-3, 48 h, read-out: GI.
For assay [21], the system named is A549. The experiment in a line: Growth inhibition of human A549 cells at 1 uM after 48 hrs by SRB assay. The following applies: A549, 48 h, read-out: GI. The format is functional.

Structures are written as SMILES. Bounds are passed on as bounds.

As to `O=C1C(=O)N(CCn2cc(CN3C(=O)C(=O)c4ccccc43)nn2)c2ccccc21`, the inhibition of growth at 50 µM in assay [1] stood at 98%; in assay [5], 100%; in [14] it was 100%; in assay [15], 20%. Also, the “growth inhibition (GI)” value in [2], in [7], in assay [9] and in [13] was “Dose-dependent effect” each time. Moreover, the IC50 – broadly, the concentration that inhibits the measured activity by half – in [2] was greater than 100 µM; in assay [7] it was less than 1 µM; in [9], less than 1 µM; in [13] it was less than 1 µM. Further, the inhibition of growth at 10 µM in assay [3] was found to be 100%; in assay [4] it was 99%; in [6], 9%; in [11], 96%. Moreover, in [8], the “Ratio IC50” value was 2. Besides, the inhibition of growth at 100 µM in assay [10] was 100%; in [12] it was 100%; in [16] it was 99%; in [17], 36%.
Turning to `O=c1[nH]cc(F)c(=O)[nH]1` [FLUOROURACIL], the inhibition of growth at 20 µM is 70% in assay [18] and 68% in [19].
Consider `Cc1ccc2c(c1)C(=O)C(=O)N2Cc1cn(CCN2C(=O)C(=O)c3cc(Cl)ccc32)nn1`, for which the inhibition of growth at 50 µM worked out at 95% in assay [1], 91% in [5], 55% in assay [14] and 52% in [15]. Besides, the “growth inhibition (GI)” value in assay [2], in [7], in assay [9] and in [13] was “Dose-dependent effect” throughout. Further, the IC50 in assay [2] is 44.9 µM; in assay [7] it was less than 1 µM; in assay [9] it was 32.6 µM; in assay [13], less than 1 µM. Further, the inhibition of growth at 10 µM worked out at 71% in [3], 36% in assay [4], 39% in assay [6] and 81% in assay [11]. The “Ratio IC50” value in assay [8] turned out to be 2. Also, the inhibition of growth at 100 µM in [10] is 92%; in [12], 70%; in [16], 98%; in [17] it was 56%.
`CO[C@@]12[C@H](COC(N)=O)C3=C(C(=O)C(C)=C(N)C3=O)N1C[C@@H]1N[C@@H]12` [MITOMYCIN]: in assay [20], the inhibition of growth at 1 µM worked out at 60%.
For the molecule `CC(=O)O[C@H]1C(=O)[C@@]2(C)[C@H]([C@H](OC(=O)c3ccccc3)[C@]3(O)C[C@H](OC(=O)[C@H](O)[C@@H](NC(=O)c4ccccc4)c4ccccc4)C(C)=C1C3(C)C)[C@]1(OC(C)=O)CO[C@@H]1C[C@@H]2O` [PACLITAXEL], the inhibition of growth at 1 µM in [21] was 69%.
Take `O=C1C(=O)N(CCn2cc(CN3C(=O)C(=O)c4cc(Cl)ccc43)nn2)c2ccccc21`: the inhibition of growth at 50 µM was found to be 98% in assay [1], 90% in [5], 100% in assay [14] and 24% in assay [15]. Further, the “growth inhibition (GI)” value in assay [2], in assay [7], in assay [9] and in assay [13] was “Dose-dependent effect” each time. In addition, the IC50 in [2] is greater than 100 µM; in [7], less than 1 µM; in assay [9], less than 1 µM; in assay [13], less than 1 µM. Moreover, the inhibition of growth at 10 µM was found to be 80% in assay [3], 99% in [4], 6% in [6] and 94% in [11]. Further, the “Ratio IC50” value in assay [8] is recorded as 2. Besides, the inhibition of growth at 100 µM amounted to 100% in assay [10], 100% in assay [12], 100% in assay [16] and 38% in assay [17].
Turning to `O=C1C(=O)N(CCn2cc(CN3C(=O)C(=O)c4cc(F)ccc43)nn2)c2ccccc21`, the inhibition of growth at 50 µM in assay [1] worked out at 97%; in assay [5], 96%; in [14] it was 98%; in [15], 1%. The “growth inhibition (GI)” value in [2], in [7], in assay [9] and in assay [13] was “Dose-dependent effect” in each case. Further, the IC50 in assay [2] is greater than 100 µM; in assay [7] it was 38.9 µM; in assay [9] it was 30.1 µM; in [13], 39.9 µM. Besides, the inhibition of growth at 10 µM in assay [3] turned out to be 10%; in assay [4], 20%; in [6], 0%; in assay [11], 11%. Besides, the inhibition of growth at 100 µM in assay [10] was 100%; in [12], 100%; in assay [16], 99%; in assay [17], 22%.
For `O=C1C(=O)N(CCn2cc(CN3C(=O)C(=O)c4ccccc43)nn2)c2ccc(F)cc21`, the inhibition of growth at 50 µM in [1] was found to be 17%; in assay [5] it was 15%; in assay [14] it was 32%; in [15], 1%. Moreover, the “growth inhibition (GI)” value in [2], in assay [7], in [9] and in assay [13] was “Dose-dependent effect” each time. For the same molecule, the IC50 in assay [2] is greater than 100 µM; in [7], greater than 100 µM; in assay [9] it was 71.1 µM; in assay [13] it was 88.1 µM. Moreover, the inhibition of growth at 10 µM in assay [3] worked out at 8%; in assay [4] it was 0%; in assay [6] it was 0%; in [11] it was 6%. In addition, the inhibition of growth at 100 µM in assay [10] is 90%; in assay [12] it was 82%; in assay [16], 32%; in assay [17], 10%.
Take `Cc1ccc2c(c1)C(=O)C(=O)N2Cc1cn(CCN2C(=O)C(=O)c3ccccc32)nn1`: the inhibition of growth at 50 µM in assay [1] was found to be 99%; in assay [5] it was 100%; in assay [14] it was 100%; in [15], 0%. Also, the “growth inhibition (GI)” value in [2], in [7], in [9] and in assay [13] was “Dose-dependent effect” throughout. Also, the IC50 in assay [2] is greater than 100 µM; in assay [7], 18.4 µM; in assay [9], 3.03 µM; in [13], less than 1 µM. The inhibition of growth at 10 µM in assay [3] was determined as 89%; in assay [4], 63%; in assay [6], 0%; in assay [11], 35%. For the same molecule, the “Ratio IC50” value in [8] was found to be 2. For the same molecule, the inhibition of growth at 100 µM in [10] is 100%; in assay [12], 100%; in assay [16], 100%; in assay [17], 17%.
`O=C1C(=O)N(CCn2cc(CN3C(=O)C(=O)c4cc(Br)ccc43)nn2)c2ccccc21`: the inhibition of growth at 50 µM is 96% in assay [1], 53% in assay [5], 99% in assay [14] and 10% in assay [15]. Also, the “growth inhibition (GI)” value in assay [2], in [7], in assay [9] and in [13] was “Dose-dependent effect” each time. The IC50 in [2] is greater than 100 µM; in assay [7], 14.6 µM; in assay [9], less than 1 µM; in [13], 51.9 µM. Further, the inhibition of growth at 10 µM in assay [3] is 10%; in [4], 94%; in assay [6], 1%; in assay [11] it was 41%. Also, the inhibition of growth at 100 µM in assay [10] was determined as 88%; in assay [12] it was 100%; in [16] it was 97%; in [17] it was 25%.
